Measurements reported in PubChem BioAssay (NCI).
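A five-concentration, 48-hour dose response in 96-well plates underlies each endpoint, interpolated linearly between surrounding concentrations. Definition used: TGI = concentration required for complete inhibition of growth.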

Legend:
Assay in all cases: NCI anticancer screen, dose series, 48 h
XF 498 CNS = system: XF 498 CNS
SF-268 CNS = system: SF-268 CNS
SK-MEL-2 melanoma = system: SK-MEL-2 melanoma
OVCAR-3 ovarian = system: OVCAR-3 ovarian
M14 melanoma = system: M14 melanoma
SK-MEL-5 melanoma = system: SK-MEL-5 melanoma
NCI-H460 lung = system: NCI-H460 lung
KM20L2 colon = system: KM20L2 colon
HL-60(TB) leukemia = system: HL-60(TB) leukemia
SN12C renal = system: SN12C renal
HOP-62 NSCLC = system: HOP-62 NSCLC
DMS 273 small cell lung = system: DMS 273 small cell lung
RXF 393 renal = system: RXF 393 renal
M19-MEL melanoma = system: M19-MEL melanoma
COLO 205 colon = system: COLO 205 colon
ACHN renal = system: ACHN renal
SK-OV-3 ovarian = system: SK-OV-3 ovarian
TK-10 renal = system: TK-10 renal
SF-295 CNS = system: SF-295 CNS
MOLT-4 leukemia = system: MOLT-4 leukemia
UACC-257 melanoma = system: UACC-257 melanoma
SK-MEL-28 melanoma = system: SK-MEL-28 melanoma
RPMI-8226 leukemia = system: RPMI-8226 leukemia
OVCAR-5 ovarian = system: OVCAR-5 ovarian
DLD-1 colon = system: DLD-1 colon
SNB-78 CNS = system: SNB-78 CNS
LOX IMVI melanoma = system: LOX IMVI melanoma
HCT-116 colon = system: HCT-116 colon
OVCAR-8 ovarian = system: OVCAR-8 ovarian
NCI-H23 lung = system: NCI-H23 lung
SNB-19 CNS = system: SNB-19 CNS
A498 renal = system: A498 renal
SW-620 colon = system: SW-620 colon
NCI-H226 lung = system: NCI-H226 lung
KM12 colon = system: KM12 colon
A549 NSCLC = system: A549 NSCLC
HT29 colon = system: HT29 colon
DMS 114 small cell lung = system: DMS 114 small cell lung
UO-31 renal = system: UO-31 renal
HOP-92 NSCLC = system: HOP-92 NSCLC
HOP-18 NSCLC = system: HOP-18 NSCLC
HCT-15 colon = system: HCT-15 colon
786-0 renal = system: 786-0 renal
MALME-3M melanoma = system: MALME-3M melanoma
UACC-62 melanoma = system: UACC-62 melanoma
HCC-2998 colon = system: HCC-2998 colon
SF-539 CNS = system: SF-539 CNS
LXFL 529 NSCLC = system: LXFL 529 NSCLC
U251 CNS = system: U251 CNS
EKVX NSCLC = system: EKVX NSCLC
SNB-75 CNS = system: SNB-75 CNS
IGROV1 ovarian = system: IGROV1 ovarian
OVCAR-4 ovarian = system: OVCAR-4 ovarian
CCRF-CEM leukemia = system: CCRF-CEM leukemia
SR leukemia = system: SR leukemia
K-562 leukemia = system: K-562 leukemia

Measured: TGI

CN(C)CCNC(=O)c1c2ccccc2cc2ccccc12
67.1 µM: K-562 leukemia
53.4 µM: UACC-62 melanoma
80.8 µM: LXFL 529 NSCLC
30.7 µM: M14 melanoma
45 µM: MOLT-4 leukemia
64.4 µM: SK-MEL-28 melanoma
26.3 µM: SR leukemia
30.1 µM: LOX IMVI melanoma
44.8 µM: XF 498 CNS
34.4 µM: UACC-257 melanoma
99 µM: RXF 393 renal
36.8 µM: SK-MEL-2 melanoma
48.5 µM: NCI-H226 lung
88.5 µM: HL-60(TB) leukemia
34.3 µM: SK-MEL-5 melanoma
48.3 µM: COLO 205 colon
> 100 µM: all other assays above
